Test [1] has as its system MGC-803. Nature of the test: Antiproliferative activity against human MGC-803 cells by MTT assay. The format is functional, cell-based.
Test [2] concerns T-24. Nature of the test: Antiproliferative activity against human T-24 cells by MTT assay. The class given is functional, cell-based. A general note: Tetrazolium assays rely on reduction of a dye to a coloured formazan, in cell work by metabolically active cells.
Test [3] has as its system SMMC-7721. Nature of the test: Antiproliferative activity against human SMMC-7721 cells by MTT assay. The format is functional, cell-based.
The subject of test [4] is SK-OV-3. Nature of the test: Antiproliferative activity against human SK-OV-3 cells by MTT assay. The format is functional, cell-based.
Test [5] concerns A549. Nature of the test: cells. Particulars: Homo sapiens.
Description: Antiproliferative activity against human A549 cells by MTT assay
In test [6] the test system is MGC-803. Nature of the test: Antitumor activity against human MGC-803 cells xenografted in BALB/c nude mice assessed as tumor increment rate at 5 mg/kg, ip measured after 21 days relative to control. The class given is functional. Particulars: time 21 day.
Test [7] deals with MGC-803. Nature of the test: Antitumor activity against human MGC-803 cells xenografted in BALB/c nude mice assessed as tumor inhibitory rate at 5 mg/kg, ip measured after 21 days relative to control. The class given is functional. As to conditions: Mus musculus, MGC-803, ip, 504 h, time 21 day. A general note: A xenograft is tissue or cells of one species grown in another, often human tumour cells in immunodeficient mice.

Where only a bound is given, the exact number is not on record here.

A word on the IC50: it is the concentration that inhibits the measured activity by half. A low value points to inhibition by little substance. As usually defined, the T/C is the result in the treated group divided by that in the control group, in per cent. By inhibition in vivo is commonly meant the change of the read-out against control, counted positive when it falls.

In the case of `CC(C)(C)OC(=O)N1CCN(c2c([N+](=O)[O-])cc3c4c(cccc24)C(=O)N(CCc2ccc(O)c(O)c2)C3=O)CC1`, the IC50 in test [1] came to 8.77 µM; in test [2], 11 µM; in test [3], 27.5 µM; in test [4], 8.87 µM; in test [5], 42.1 µM.
For `O=C(c1ccccc1)N1CCN(c2c([N+](=O)[O-])cc3c4c(cccc24)C(=O)N(CCc2ccc(O)c(O)c2)C3=O)CC1`, in that order: 9.31 µM, 14.6 µM, 19.7 µM, 19.9 µM and 22.5 µM.
Consider `CN(C)CCN1C(=O)c2cccc3c(N4CCN(C(=O)OC(C)(C)C)CC4)c([N+](=O)[O-])cc(c23)C1=O`, for which the IC50 amounted to 1.33 µM in test [1]; 0.83 µM in test [2]; 1.05 µM in test [3]; 0.65 µM in test [4]; 1.08 µM in test [5].
The matching figures for `O=C(c1ccccc1)N1CCN(c2c([N+](=O)[O-])cc3c4c(cccc24)C(=O)N(CCO)C3=O)CC1`: 12.9 µM, 9.93 µM, 12 µM, 16.8 µM and 31.3 µM.
As for `CN(C)CCN1C(=O)c2cccc3cc(N)cc(c23)C1=O` [AMONAFIDE], the T/C in test [6] is given as 34.4%. For the same compound, the IC50 in test [1] was 9.06 µM; in test [2], 5.01 µM; in test [3], 6.93 µM; in test [4], 6.31 µM; in test [5] it was 7.94 µM. Further, the inhibition in vivo at 5 mg/kg in test [7] came out at 65.5%.
As to `CC(C)(C)OC(=O)N1CCN(c2c([N+](=O)[O-])cc3c4c(cccc24)C(=O)N(CCO)C3=O)CC1`, the IC50 is 27.4 µM in test [1]; 12.8 µM in test [2]; 13.9 µM in test [3]; 13.4 µM in test [4]; 45.6 µM in test [5].
On to `Cc1ccc(S(=O)(=O)N2CCN(c3c([N+](=O)[O-])cc4c5c(cccc35)C(=O)N(Cc3ccc(Cl)cc3)C4=O)CC2)cc1`, for which the IC50 in test [1] was 28.9 µM; in test [2], 6.37 µM; in test [3] it was 17.6 µM; in test [4], 30.4 µM; in test [5] it was > 50 µM.
For the compound `O=C1c2cccc3c(N4CCN(C(=S)SCc5ccccc5)CC4)c([N+](=O)[O-])cc(c23)C(=O)N1CCc1ccc(O)c(O)c1`, the IC50 turned out to be 25.4 µM in test [1]; 10.7 µM in test [2]; 22.5 µM in test [3]; 26.3 µM in test [4]; 17.4 µM in test [5].
Take `Cc1ccc(S(=O)(=O)N2CCN(c3c([N+](=O)[O-])cc4c5c(cccc35)C(=O)N(CCO)C4=O)CC2)cc1`: the IC50 was found to be 16 µM in test [1]; 6.8 µM in test [2]; 15.8 µM in test [3]; 12.2 µM in test [4]; 20.8 µM in test [5].
For `CC(C)(C)OC(=O)N1CCN(c2c([N+](=O)[O-])cc3c4c(cccc24)C(=O)N(CCc2ccc4c(c2)OCO4)C3=O)CC1`, in that order: 25.2 µM, 9.71 µM, 14.4 µM, 7.48 µM and 16.5 µM.
Regarding `Cc1ccc(S(=O)(=O)N2CCN(c3c([N+](=O)[O-])cc4c5c(cccc35)C(=O)N(CCc3ccc5c(c3)OCO5)C4=O)CC2)cc1`, the IC50 was 12.8 µM in test [1]; 9.17 µM in test [2]; 16.6 µM in test [3]; 28.9 µM in test [4]; 41.8 µM in test [5].
Regarding `O=C1c2cccc3c(N4CCN(C(=S)SCc5ccccc5)CC4)c([N+](=O)[O-])cc(c23)C(=O)N1CCO`, the IC50 in test [1] was 15.4 µM; in test [2], 13.2 µM; in test [3] it was 14.3 µM; in test [4], 31.4 µM; in test [5], > 50 µM.
As for `O=C1c2cccc3c(N4CCN(C(=S)SCc5ccccc5)CC4)c([N+](=O)[O-])cc(c23)C(=O)N1CCc1ccc2c(c1)OCO2`, the IC50 in test [1] amounted to 20.7 µM; in test [2], 9.16 µM; in test [3], 12.9 µM; in test [4], 44.8 µM; in test [5], 33.4 µM.
The matching figures for `O=C1c2cccc3c(N4CCN(C(=S)SCc5ccccc5)CC4)c([N+](=O)[O-])cc(c23)C(=O)N1Cc1ccco1`: 21.2 µM, 18.4 µM, 11.6 µM, 40.4 µM and 44.5 µM.
With `Cc1ccc(S(=O)(=O)N2CCN(c3c([N+](=O)[O-])cc4c5c(cccc35)C(=O)N(Nc3ccccc3)C4=O)CC2)cc1`, the concentration for half-maximal inhibition (IC50) in test [1] is 16.2 µM; in test [2], 10.7 µM; in test [3] it was 14.4 µM; in test [4], 23.2 µM; in test [5] it was 38.4 µM.
In the case of `CNCCCN1C(=O)c2cccc3c(N4CCN(C(=O)OC(C)(C)C)CC4)c([N+](=O)[O-])cc(c23)C1=O`, the IC50 in test [1] turned out to be 6.44 µM; in test [2] it was 3.05 µM; in test [3], 5.91 µM; in test [4], 8.65 µM; in test [5] it was 7.52 µM.
In the case of `Cc1ccc(S(=O)(=O)N2CCN(c3c([N+](=O)[O-])cc4c5c(cccc35)C(=O)N(Cc3ccco3)C4=O)CC2)cc1`, the IC50 was 29.9 µM in test [1]; 8.43 µM in test [2]; 14.7 µM in test [3]; 29.5 µM in test [4]; 47.2 µM in test [5].
As for `O=c1[nH]cc(F)c(=O)[nH]1` [FLUOROURACIL], the IC50 in test [1] turned out to be 34.9 µM; in test [2] it was 40.1 µM; in test [3], 15.3 µM.
Take `COc1ccc(CN2C(=O)c3cccc4c(N5CCN(S(=O)(=O)c6ccc(C)cc6)CC5)c([N+](=O)[O-])cc(c34)C2=O)cc1`: the IC50 was determined as 16.3 µM in test [1]; 14.1 µM in test [2]; 30.2 µM in test [3]; 24.1 µM in test [4]; 26.9 µM in test [5].
As for `O=C(c1ccccc1)N1CCN(c2c([N+](=O)[O-])cc3c4c(cccc24)C(=O)N(Cc2ccc(Cl)cc2)C3=O)CC1`, the half-inhibitory concentration (IC50) in test [1] is 19.9 µM; in test [2], 20.9 µM; in test [3] it was 13 µM; in test [4], 15.9 µM; in test [5] it was 47.7 µM.
As to `CNCCCN1C(=O)c2cccc3c(N4CCN(C(=O)c5ccccc5)CC4)c([N+](=O)[O-])cc(c23)C1=O`, the IC50 in test [1] came to 8.22 µM; in test [2], 4.65 µM; in test [3] it was 4.73 µM; in test [4], 4.11 µM; in test [5], 6.66 µM.
The matching figures for `O=C1c2cccc3c(N4CCN(C(=S)SCc5ccccc5)CC4)c([N+](=O)[O-])cc(c23)C(=O)N1Cc1ccc(Cl)cc1`: 20.7 µM, 10.3 µM, 8.83 µM, 29.7 µM and 40 µM.
Regarding `COc1ccc(CN2C(=O)c3cccc4c(N5CCN(C(=S)SCc6ccccc6)CC5)c([N+](=O)[O-])cc(c34)C2=O)cc1`, the IC50 in test [1] came to 31.1 µM; in test [2], 10.8 µM; in test [3], 17.9 µM; in test [4], 27 µM; in test [5] it was 38.6 µM.
For the compound `CC(C)(C)OC(=O)N1CCN(c2c([N+](=O)[O-])cc3c4c(cccc24)C(=O)N(Cc2ccc(Cl)cc2)C3=O)CC1`, the IC50 in test [1] worked out at 16.1 µM; in test [2], 9.52 µM; in test [3], 7.76 µM; in test [4], 12.7 µM; in test [5], 40.4 µM.
In the case of `O=C1c2cccc3c(N4CCN(C(=S)SCc5ccccc5)CC4)c([N+](=O)[O-])cc(c23)C(=O)N1Cc1ccccc1`, the IC50 in test [1] was 21.7 µM; in test [2] it was 13.1 µM; in test [3], 13.5 µM; in test [4], 34.2 µM; in test [5], > 50 µM.
For `Cc1ccc(S(=O)(=O)N2CCN(c3c([N+](=O)[O-])cc4c5c(cccc35)C(=O)N(Cc3ccccc3)C4=O)CC2)cc1`, in that order: 10.8 µM, 12.7 µM, 14.8 µM, 38.2 µM and 42.9 µM.
On to `CN(C)CCN1C(=O)c2cccc3cc([N+](=O)[O-])cc(c23)C1=O` [MITONAFIDE], for which the IC50 in test [1] was found to be 6.8 µM; in test [2] it was 1.11 µM; in test [3] it was 3.22 µM; in test [4], 1.38 µM; in test [5] it was 0.012 µM.
For the compound `CCCCN1C(=O)c2cccc3c(N4CCN(S(=O)(=O)c5ccc(C)cc5)CC4)c([N+](=O)[O-])cc(c23)C1=O`, the IC50 was 21.3 µM in test [1]; 10.9 µM in test [2]; 12.5 µM in test [3]; 33.6 µM in test [4]; 36.8 µM in test [5].
Consider `Cc1ccc(S(=O)(=O)N2CCN(c3c([N+](=O)[O-])cc4c5c(cccc35)C(=O)N(CCc3ccc(O)c(O)c3)C4=O)CC2)cc1`, for which the IC50 in test [1] worked out at 21.8 µM; in test [2] it was 11.4 µM; in test [3], 12.3 µM; in test [4], 20.4 µM; in test [5], 24.7 µM.
Take `CN(C)CCN1C(=O)c2cccc3c(N4CCN(C(=S)SCc5ccccc5)CC4)c([N+](=O)[O-])cc(c23)C1=O`: the concentration for half-maximal inhibition (IC50) stood at 6.08 µM in test [1]; 2.06 µM in test [2]; 3.17 µM in test [3]; 2.4 µM in test [4]; 1.98 µM in test [5].
Consider `O=C1c2cccc3c(N4CCN(C(=S)SCc5ccccc5)CC4)c([N+](=O)[O-])cc(c23)C(=O)N1Nc1ccccc1`, for which the IC50 in test [1] was 18.4 µM; in test [2], 13.3 µM; in test [3], 14.8 µM; in test [4] it was > 50 µM; in test [5], > 50 µM.
